{"source": "patent US20260191807A1", "about": "“COMPOSITIONS AND METHODS FOR TREATMENT OF PRADER-WILLI SYNDROME” (ERX Pharmaceuticals Inc., priority 2022, published 2026)", "test_system": "C57BL/6 DIO mice", "assay": "Daily food intake of C57BL/6 DIO mice", "type": "in vivo", "details": "for Food intake (food weights in g/day): Belaronib 0.3 mg/kg SC, Celastrol 0.2 mg/kg IP daily, mean", "description": "C57BL/6 mice were treated with test compound (Celastrol) or controls as shown in the table below from Day 1 to Day 15. […] One mouse was excluded from the study because it appeared resistant to nestlet shredding prior to treatment.\nMale C57BL/6 DIO mice were obtained from Jackson Labs (Bar Harbor, ME). The mice arrived at ages 17 weeks and mice were housed 3 per cage on arrival. Prior to dosing in the study, the mice were singly housed.\nAll treatment volumes were 10 mL/kg. Utilizing the art-recognized nestlet shredding mouse model, […]. Celastrol and the vehicle control were administered intraperitoneally using a 30G needle. Beloranib was administered subcutaneously using a 30G needle. All treatments were administered daily in the afternoon at 17:00 h, 1 hour before dark cycle from Day 1 to end of dosing.\nCelastrol was dissolved in a pharmaceutically-acceptable excipient, e.g., 50% Solutol/50% DMAC, and this stock solution aliquoted and stored at −80° C. until treatment day. On the day of treatment, an aliquot of the stock solution was thawed and diluted […] with saline to obtain the desired dosing solution strength in 5% Solutol/5% dimethylacetamide/90% saline. The vehicle control was 5% Solutol/5% dimethylacetamide/90% saline. Beloranib was dissolved in 100% DMSO, and this stock solution was aliquoted and stored at −80° C. until treatment day. On the day of treatment, an aliquot of the stock solution was thawed and diluted 1:10 with deionized (DI) water to obtain the desired dosing solution strength in 10% DMSO.\nDaily food intake was calculated based on remaining food weight compared to food weight on the previous day using an Ohaus model CS 200 balance.", "data": [{"smiles": "CC1=C(O)C(=O)C=C2C1=CC=C1[C@@]2(C)CC[C@@]2(C)[C@@H]3C[C@](C)(C(=O)O)CC[C@]3(C)CC[C@]12C", "note": "[Celastrol]", "values": [{"measurement": "cumulative food intake, average total for the study", "setting": "15-day study, Beloranib 0.3 mg/kg SC, celastrol 0.2 mg/kg IP daily, vehicle 32.6 g", "value": 17.4, "unit": "g/mouse"}, {"measurement": "effect on food intake (in words)", "setting": "Celastrol compared with positive control Beloranib", "value": "more potent and sustained effect on food intake"}, {"measurement": "Food intake (food weights in g/day)", "setting": "Day 1", "value": 2.7, "unit": "g/day"}, {"measurement": "Food intake (food weights in g/day)", "setting": "Day 2", "value": 1.2, "unit": "g/day"}, {"measurement": "Food intake (food weights in g/day)", "setting": "Day 3", "value": 1.1, "unit": "g/day"}, {"measurement": "Food intake (food weights in g/day)", "setting": "Day 4", "value": 0.9, "unit": "g/day"}, {"measurement": "Food intake (food weights in g/day)", "setting": "Day 5", "value": 0.7, "unit": "g/day"}, {"measurement": "Food intake (food weights in g/day)", "setting": "Day 6", "value": 0.9, "unit": "g/day"}, {"measurement": "Food intake (food weights in g/day)", "setting": "Day 7", "value": 1.1, "unit": "g/day"}, {"measurement": "Food intake (food weights in g/day)", "setting": "Day 8", "value": 1.2, "unit": "g/day"}, {"measurement": "Food intake (food weights in g/day)", "setting": "Day 9", "value": 0.7, "unit": "g/day"}, {"measurement": "Food intake (food weights in g/day)", "setting": "Day 10", "value": 0.9, "unit": "g/day"}, {"measurement": "Food intake (food weights in g/day)", "setting": "Day 11", "value": 1.1, "unit": "g/day"}, {"measurement": "Food intake (food weights in g/day)", "setting": "Day 12", "value": 1.3, "unit": "g/day"}, {"measurement": "Food intake (food weights in g/day)", "setting": "Day 13", "value": 1.4, "unit": "g/day"}, {"measurement": "Food intake (food weights in g/day)", "setting": "Day 14", "value": 1.2, "unit": "g/day"}, {"measurement": "Food intake (food weights in g/day)", "setting": "Day 15", "value": 1.0, "unit": "g/day"}, {"measurement": "food intake, average", "setting": "from day 2 throughout the 15-day study, 0.2 mg/kg IP daily, vehicle around 2.2", "value": 1.0, "unit": "g/day/mouse"}]}]}
